In brackets after ≈: the same amount, converted by molar mass.
Details: buffer; pH 7.4; 200.0 µM

SMILES	solubility kinetic [µg/mL]
O=C(NC(=S)Nc1ccccc1C(=O)O)c1ccc2ccccc2c1	38.2 (≈ 109 µM)
Cc1c(Cl)cccc1NC(=S)NC1CCCC1	7.5 (≈ 27.9 µM)
O=C(OCC(=O)N1CCCCCC1)c1ccc[nH]c1=O	> 41.7
O=C(NCCc1ccc(F)cc1)c1cc(=O)c2ccccc2o1	9.4 (≈ 30.2 µM)
CCOc1ncccc1C(=O)OCC(=O)NCc1cccs1	> 48.1
CC(=O)Nc1ccc(N2C(=O)C3C4C=CC(CC4)C3C2=O)cc1 (stereo unspecified)	> 46.6
C=CCn1cnnc1SCC(=O)Nc1cccnc1Cl	> 46.5
CCN(C(=O)/C=C/c1ccccc1)C1CCCCC1	> 38.6
CCOCCN(C(=O)c1ccccc1Cl)c1ccccc1	41.1 (≈ 135 µM)
COc1cccc(NC(=O)C2CC(=O)N(Cc3ccc(C)cc3)C2)c1 (stereo unspecified)	9.3 (≈ 27.5 µM)
COc1ccc(CCNC(=O)COC(=O)/C=C/c2cc(OC)ccc2OC)cc1	5.3 (≈ 13.3 µM)
Cc1cc(NC(=O)Nc2cc(Cl)sc2Cl)no1	< 0.2
O=Cc1ccccc1OCCN1CCCC1=O	33.8 (≈ 145 µM)
CCC(=O)Nc1ccc2nc3c(=O)[nH]c(=S)[nH]c3nc2c1	> 45.2
N#CCCN(C(=O)CSc1n[nH]c(=O)[nH]c1=O)c1ccccc1	> 49.7
CCCCOc1ccc(C(=O)NNC(=O)c2cnccn2)cc1OC	> 51.7
Cc1ccccc1NC(=O)c1ccc(S(=O)(=O)N2CCCC2)cc1	> 51.7
O=C(C1CCC1)N1CCC(O)(c2cccc(F)c2)CC1	39.4 (≈ 142 µM)
Cc1ccc(NC(=O)c2cccnc2)cc1C	> 33.9
CCN1C(=O)CSC1=Nc1cccc(C(=O)O)c1	> 39.6
Cc1cc(OC(F)F)ccc1NC(=O)Nc1ccc2c(c1)OCO2	< 0.4

SMILES	solubility kinetic [µg/mL]
CCCCC(=O)N=c1sc2c(OC)ccc(OC)c2n1C	< 0.3
O=c1onc(-c2c(F)cccc2F)n1-c1ccccc1Cl	1 (≈ 3.24 µM)
Cc1cnc(C(=O)N2CCN(c3ccc(C(F)(F)F)cn3)CC2)cn1	48 (≈ 137 µM)
Cc1ccc(/C(O)=C/C(=O)C(=O)NC23CC4CC(CC(C4)C2)C3)cc1	8.4 (≈ 24.7 µM)
Cc1cnc(NC(=O)C2CC=CCC2)s1 (stereo unspecified)	23.9 (≈ 108 µM)
COCc1cc(C)nc(SCc2ccc([N+](=O)[O-])cc2)c1C#N	5.2 (≈ 15.8 µM)
CS(=O)(=O)N(CC(=O)N1CCCC1)c1ccccc1F	> 45.1
O=C(NCC1CC1)Nc1cccc(C(F)(F)F)c1	29.3 (≈ 113 µM)
O=C1CN(S(=O)(=O)c2ccc(F)cc2)CCN1	> 38.7
CC(=O)N[C@@H](Cc1c[nH]c2ccccc12)C(=O)NC1CC1	> 42.8
COc1ccc(CNC(=O)Cc2cccs2)cc1OC	42.6 (≈ 146 µM)
CCCCC(CCC(=O)Nc1cccc([N+](=O)[O-])c1)C(=O)O (stereo unspecified)	43.7 (≈ 142 µM)
O=C(NCc1ccccc1)C1(c2cccc(F)c2)CCCC1	12.2 (≈ 41 µM)
OCCN1CNC(=S)NC1	22.8 (≈ 141 µM)
C=C(C)n1c(=O)n(Cc2ccccc2C)c2ccccc21	16 (≈ 57.5 µM)
CCCN(CC(=O)Nc1ccccc1C)C(=O)c1cnc(C)cn1	> 49
O=C(O)C1(Cc2nc3ccccc3[nH]2)CCCC1	26.8 (≈ 110 µM)
Cc1ccc(NC(=O)Nc2cc(C(F)(F)F)c[nH]c2=O)cc1	0.4 (≈ 1.29 µM)
c1ccc(CCNc2nc(-c3ccccn3)nc3ccccc23)cc1	31.4 (≈ 96.2 µM)
Cc1ccc(NC(=O)CNc2cccc(Br)c2)cc1S(=O)(=O)N1CCOCC1	14.3 (≈ 30.5 µM)
Cc1ccc(C(=O)O)cc1NCc1ccncc1	> 36.3

SMILES	solubility kinetic [µg/mL]
O=C(NCCN1CCOCC1)c1cccc(Br)c1	46.4 (≈ 148 µM)
Cc1ccc(NC(=O)Nc2cnccn2)cc1C	9.5 (≈ 39.2 µM)
Cc1nc2ccc([N+](=O)[O-])cc2c(=O)n1Cc1ccc(F)cc1	4.7 (≈ 15 µM)
CN(Cc1ccccc1)C(=O)COc1ccc2ccccc2c1	< 0.7
COC(=O)Cn1cc(C=C2C(=O)N(C)C(=O)N(C)C2=O)c2ccccc21	3.8 (≈ 10.7 µM)
O=C(O)CC/C(=N\NC(=O)CNC(=O)/C=C/c1ccccc1)c1ccccc1	> 56.9
O=S(=O)(c1ccc(Br)c2ccccc12)N1CCOCC1	17.4 (≈ 48.8 µM)
CCc1ccc(NC(=O)Cn2cnc3c(=O)n(C)c(=O)n(C)c32)cc1	18.6 (≈ 54.5 µM)
Cc1ccc(N2C(=O)CC(Nc3cccc4ccccc34)C2=O)cc1 (stereo unspecified)	3.8 (≈ 11.5 µM)
Cc1cccc(C)c1NC(=O)c1ccc(N2CCCC2=O)cc1	> 46.3
CCCC1NC(=S)NC(C)=C1C(C)=O (stereo unspecified)	> 31.8
C=CCSc1nsc(NC(=O)Nc2cccc(C(C)=O)c2)n1	1.9 (≈ 5.68 µM)
O=C1CCCN1Cc1ccccc1	> 26.3
Cn1c(=O)c(C=Nc2ccccc2)c(O)c2ccccc21	11.2 (≈ 40.2 µM)
CCCCNC(=O)COC(=O)c1cc(C)oc1C	> 38
O=C(O)c1cncc(SCc2ccccc2)n1	34.5 (≈ 140 µM)
COC(=O)Nc1cc(C(=O)c2ccc(Cl)cc2Cl)c[nH]1	43.6 (≈ 139 µM)
O=C(Nc1cnccn1)c1ccc(Cl)cc1	34.7 (≈ 149 µM)
CCC(=O)N(Cc1cc(=O)[nH]c2ccccc12)c1ccccc1	> 46

Reference: PubChem BioAssay AID1996
